Reference: patent publication US8586596B2, “Compounds as cannabinoid receptor ligands” (AbbVie Inc., priority 2010, dated 2013)
Like-named read-outs stand apart in the source and are kept apart here.

Columns and labels:
[1] = target: T1, rat CB2 receptors (Rattus norvegicus, UniProt Q9QZN9); assay: CB2 radioligand binding assay ([3H]CP 55,940 competition), rat
T1 construct: expressed in transfected cells; membrane preparation
T1 sequence (Q9QZN9 1-360): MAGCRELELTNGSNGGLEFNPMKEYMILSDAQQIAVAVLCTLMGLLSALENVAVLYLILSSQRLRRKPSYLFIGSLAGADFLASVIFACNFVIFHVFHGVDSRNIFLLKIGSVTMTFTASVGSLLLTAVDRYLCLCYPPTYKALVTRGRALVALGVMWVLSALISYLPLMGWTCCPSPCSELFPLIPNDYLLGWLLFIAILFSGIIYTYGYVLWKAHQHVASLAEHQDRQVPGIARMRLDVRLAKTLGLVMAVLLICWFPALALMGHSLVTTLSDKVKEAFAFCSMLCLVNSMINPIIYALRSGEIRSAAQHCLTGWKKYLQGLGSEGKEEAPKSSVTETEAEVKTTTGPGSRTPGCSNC

[2] = target: T2, human CB2 receptors (Homo sapiens, UniProt P34972); assay: CB2 radioligand binding assay ([3H]CP 55,940 competition), human
T2 construct: expressed in transfected cells; membrane preparation
T2 sequence (P34972 whole entry): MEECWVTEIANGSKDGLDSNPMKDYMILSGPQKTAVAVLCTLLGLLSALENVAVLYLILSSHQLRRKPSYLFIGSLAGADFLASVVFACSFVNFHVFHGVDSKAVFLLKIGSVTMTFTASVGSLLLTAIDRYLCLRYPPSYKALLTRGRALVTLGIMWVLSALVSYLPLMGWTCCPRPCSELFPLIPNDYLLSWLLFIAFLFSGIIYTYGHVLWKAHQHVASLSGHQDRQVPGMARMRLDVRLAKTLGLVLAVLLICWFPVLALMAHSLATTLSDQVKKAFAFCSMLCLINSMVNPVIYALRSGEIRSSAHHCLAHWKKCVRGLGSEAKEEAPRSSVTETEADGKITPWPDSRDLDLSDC

Structure (SMILES) | Ki ([1]; membranes of HEK293 cells stably expressing rat CB2, 0.5 nM [3H]CP 55,940, read-out: rat CB2 binding (Ki)) [nM] | Ki ([2]; membranes of HEK293 cells stably expressing human CB2, 0.5 nM [3H]CP 55,940, read-out: human CB2 binding (Ki)) [nM] | Ki [1] [nM] | Ki [2] [nM]
CCCCn1/c(=N/C(=O)c2cc(C(F)(F)F)ccc2OC[C@H](C)O)sc2ncnc(O)c21 [Example 1, N-[(2Z)-1-butyl-7-hydroxy[1,3]thiazolo[5,4-d]pyrimidin-2(1H)-ylidene]-2-{[(2S)-2-hydroxypropyl]oxy}-5-(trifluoromethyl)benzamide] | 157 | 233 |  | 
CCCCn1/c(=N/C(=O)c2cc(C(F)(F)F)ccc2OC[C@H](C)O)sc2nccnc21 [Example 2, N-[(2Z)-3-butyl[1,3]thiazolo[4,5-b]pyrazin-2(3H)-ylidene]-2-{[(2S)-2-hydroxypropyl]oxy}-5-(trifluoromethyl)benzamide] |  |  | 4.1 | 2
CCCCn1/c(=N/C(=O)c2cc(C(F)(F)F)ccc2OC[C@H](C)O)sc2ncncc21 [Example 3, N-[(2Z)-1-butyl[1,3]thiazolo[5,4-d]pyrimidin-2(1H)-ylidene]-2-{[(2S)-2-hydroxypropyl]oxy}-5-(trifluoromethyl)benzamide] |  |  | 4 | 10
CCCCn1/c(=N/C(=O)c2cc(C(F)(F)F)ccc2OC[C@H](C)O)sc2cnn(C)c(=O)c21 [Example 4, N-[(2Z)-3-butyl-5-methyl-4-oxo-4,5-dihydro[1,3]thiazolo[4,5-d]pyridazin-2(3H)-ylidene]-2-{[(2S)-2-hydroxypropyl]oxy}-5-(trifluoromethyl)benzamide] |  |  | 5 | 36
